Measured values: patent US20240076293A1, “Compositions and Methods for Inhibiting Fibrosis, Inflammation and Cancer” (Georgia Tech Research Corporation, priority 2020, published 2024)
Where a name gives a salt, the structure may show the parent alone. Read-outs that look alike come from different tables or passages of the source.

Experiments:
Assay type in all cases: cell-based
[1] = Anti-proliferation IC50, MRC-5; conditions: human, MRC-5 cells; Table 1, compounds of formula I; NI = no inhibition up to 500 μM
[2] = test system: VERO; assay: Anti-proliferation IC50, VERO; conditions: Chlorocebus sabaeus
[3] = test system: MDA-MB-231; assay: Anti-proliferation IC50, MDA-MB-231; conditions: Homo sapiens
[4] = test system: MCF-7; assay: Anti-proliferation IC50, MCF-7; conditions: Homo sapiens, MCF7
[5] = test system: A549; assay: Anti-proliferation IC50, A549; conditions: Homo sapiens
[6] = test system: Hep-G2; assay: Anti-proliferation IC50, Hep-G2; conditions: Homo sapiens, HepG2
[7] = test system: MRC-5; assay: Anti-proliferation IC50, MRC-5; conditions: Homo sapiens, MRC5; Table 2, compounds of formula II
[8] = Table 1, compounds of formula I, NI = no inhibition up to 500 μM, read-out: VERO (IC50)
[9] = Table 1, compounds of formula I, NI = no inhibition up to 500 μM, read-out: MDA-MB-231 (IC50)
[10] = Table 1, compounds of formula I, NI = no inhibition up to 500 μM, read-out: MCF-7 (IC50)
[11] = Table 1, compounds of formula I, NI = no inhibition up to 500 μM, read-out: A549 (IC50)
[12] = Table 1, compounds of formula I, NI = no inhibition up to 500 μM, read-out: Hep-G2 (IC50)
[13] = Table 2, compounds of formula II, read-out: Anti-proliferation IC50 VERO
[14] = Table 2, compounds of formula II, read-out: Anti-proliferation IC50 MDA-MB-231
[15] = Table 2, compounds of formula II, read-out: Anti-proliferation IC50 MCF-7
[16] = Table 2, compounds of formula II, read-out: Anti-proliferation IC50 A549
[17] = Table 2, compounds of formula II, read-out: Anti-proliferation IC50 Hep-G2

SMILES	IC50 [1] [µM]	IC50 [2, 8] [µM]	IC50 [3, 9] [µM]	IC50 [4, 10] [µM]	IC50 [5, 11] [µM]	IC50 [6, 12] [µM]	IC50 [7] [µM]	IC50 [2, 13] [µM]	IC50 [3, 14] [µM]	IC50 [4, 15] [µM]	IC50 [5, 16] [µM]	IC50 [6, 17] [µM]	IC50 ([2]; Anti-proliferation IC50 for the new compounds, read-out: VERO (IC50 μM)) [µM]	IC50 ([3]; Anti-proliferation IC50 for the new compounds, read-out: MDA-MB-231 (IC50 μM)) [µM]	IC50 ([4]; Anti-proliferation IC50 for the new compounds, read-out: MCF-7 (IC50 μM)) [µM]	IC50 ([6]; Anti-proliferation IC50 for the new compounds, read-out: Hep-G2 (IC50 μM)) [µM]
CC[C@H]1OC(=O)[C@@H](C)[C@@H](O[C@@H]2C[C@](C)(OC)[C@H](O)[C@@H](C)O2)[C@@H](C)[C@@H](O[C@H]2O[C@@H](C)C[C@@H](N(C)C)[C@@H]2OC(=O)CCCC[C@H]2CCSS2)[C@](C)(OC)C[C@@H](C)C(=O)[C@H](C)[C@H](O)[C@]1(C)O	44.8 ± 7.1	> 500	65 ± 0.9	> 500	> 500	> 500	–	–	–	–	–	–	–	–	–	–
CC[C@H]1OC(=O)[C@@H](C)[C@@H](O)[C@@H](C)[C@@H](O[C@H]2O[C@@H](C)C[C@@H](N(C)C)[C@@H]2OC(=O)CCCC[C@H]2CCSS2)[C@](C)(OC)C[C@@H](C)C(=O)[C@H](C)[C@H](O)[C@]1(C)O	262.6 ± 0.4	> 500	414.4 ± 1.7	477.3 ± 3.4	> 500	222 ± 5.3	–	–	–	–	–	–	–	–	–	–
CC[C@H]1OC(=O)[C@@H](C)[C@@H](O[C@H]2C[C@@](C)(OC)[C@@H](O)[C@H](C)O2)[C@@H](C)[C@@H](O[C@H]2O[C@@H](C)C[C@@H](N(C)Cc3ccc(-c4cn(CCNC(=O)CCCC[C@H]5CCSS5)nn4)cc3)[C@@H]2O)[C@](C)(OC)C[C@@H](C)C(=O)[C@H](C)[C@H](O)[C@]1(C)O	56.1 ± 1.2	65 ± 12.2	56.9 ± 1.3	42.3 ± 4.4	58.6 ± 0.6	57.3 ± 1.2	–	–	–	–	–	–	–	–	–	–
CC[C@H]1OC(=O)[C@@H](C)[C@@H](O[C@H]2C[C@@](C)(OC)[C@@H](O)[C@H](C)O2)[C@@H](C)[C@@H](O[C@H]2O[C@@H](C)C[C@@H](N(C)Cc3ccc(-c4cn(CCCNC(=O)CCCC[C@H]5CCSS5)nn4)cc3)[C@@H]2O)[C@](C)(OC)C[C@@H](C)C(=O)[C@H](C)[C@H](O)[C@]1(C)O	51.6 ± 5	58.1 ± 2.7	58.5 ± 3.2	53.6 ± 0.2	56.9 ± 0.8	49.2 ± 1.8	–	–	–	–	–	–	–	–	–	–
CC[C@H]1OC(=O)[C@@H](C)[C@@H](O[C@H]2C[C@@](C)(OC)[C@@H](O)[C@H](C)O2)[C@@H](C)[C@@H](O[C@H]2O[C@@H](C)C[C@@H](N(C)C)[C@@H]2OC(=O)/C=C/C(=O)OC)[C@](C)(OC)C[C@@H](C)C(=O)[C@H](C)[C@H](O)[C@]1(C)O	88.4	219 ± 45.8	140	128 ± 16.5	278	133	–	–	–	–	–	–	–	–	–	–
CCCCOC(=O)/C=C/C(=O)N(C)[C@@H]1C[C@H](C)O[C@H](O[C@@H]2[C@H](C)[C@H](O[C@H]3C[C@@](C)(OC)[C@@H](O)[C@H](C)O3)[C@H](C)C(=O)O[C@H](CC)[C@@](C)(O)[C@@H](O)[C@@H](C)C(=O)[C@H](C)C[C@@]2(C)OC)[C@H]1O	44.9 ± 0.6	68.3 ± 16.8	28.4 ± 3.9	72.3 ± 5.2	> 500	209 ± 11.2	–	–	–	–	–	–	–	–	–	–
CC[C@@H]1OC(=O)[C@@H](C)[C@H](O[C@H]2C[C@@](C)(OC)[C@@H](O)[C@H](C)O2)[C@@H](C)[C@H](O[C@@H]2O[C@H](C)C[C@H](N(C)C)[C@H]2OC(=O)CCCC[C@H]2CCSS2)C(C)(O)C[C@H](C)CN(C)[C@@H](C)[C@H](O)[C@@]1(C)O (stereo partly shown)	–	–	–	–	–	–	13.4 ± 0.4	54.5 ± 0.8	45 ± 1.3	38.2 ± 0.8	23 ± 0.5	29.5 ± 4.4	–	–	–	–
CC[C@H]1OC(=O)[C@H](C)[C@@H](O[C@H]2C[C@@](C)(OC)[C@@H](O)[C@H](C)O2)[C@H](C)[C@@H](O[C@@H]2O[C@H](C)C[C@H](N(C)C(=O)CCCC[C@H]3CCSS3)[C@H]2O)[C@](C)(O)C[C@@H](C)CN(C)[C@H](C)[C@@H](O)[C@]1(C)O	–	–	–	–	–	–	20.2 ± 3.7	24.4 ± 2.4	11.9 ± 1.7	11.2	18.8 ± 4.1	13.6 ± 0.1	–	–	–	–
CC[C@@H]1OC(=O)[C@@H](C)[C@H](O[C@H]2C[C@@](C)(OC)[C@@H](O)[C@H](C)O2)[C@@H](C)[C@H](O[C@H]2O[C@@H](C)C[C@@H](N(C)Cc3ccc(-c4cn(CCNC(=O)CCCC[C@H]5CCSS5)nn4)cc3)[C@@H]2O)C(C)(O)C[C@H](C)CN(C)[C@@H](C)[C@H](O)[C@@]1(C)O (stereo partly shown)	–	–	–	–	–	–	6.1	16.9 ± 0.4	11.8 ± 0.1	11.7 ± 0.4	10.3 ± 0.9	8.5 ± 1.1	–	–	–	–
CC[C@@H]1OC(=O)[C@@H](C)[C@H](OC2C[C@@](C)(OC)[C@@H](O)[C@H](C)O2)[C@@H](C)[C@H](O[C@H]2O[C@@H](C)C[C@@H](N(C)Cc3ccc(-c4cn(CCCNC(=O)CCCC[C@H]5CCSS5)nn4)cc3)[C@@H]2O)C(C)(O)C[C@H](C)CN(C)[C@@H](C)[C@H](O)[C@@]1(C)O (stereo partly shown)	–	–	–	–	–	–	24.5 ± 2.6	40.3 ± 4.9	21.3 ± 1.5	26.8 ± 7.1	26.9	14.4 ± 0.6	–	–	–	–
CC[C@@H]1OC(=O)[C@@H](C)[C@H](O[C@H]2C[C@@](C)(OC)[C@@H](O)[C@H](C)O2)[C@@H](C)[C@H](O[C@H]2O[C@@H](C)C[C@@H](N(C)C)[C@@H]2OC(=O)/C=C/C(=O)OC)C(C)(O)C[C@H](C)CN(C)[C@@H](C)[C@H](O)[C@@]1(C)O (stereo partly shown)	–	–	–	–	–	–	68.3	238 ± 29.1	118	278	284	118	–	–	–	–
CCCCOC(=O)/C=C/C(=O)O[C@@H]1[C@@H](O[C@H]2[C@H](C)[C@@H](O[C@H]3C[C@@](C)(OC)[C@@H](O)[C@H](C)O3)[C@H](C)C(=O)O[C@@H](CC)[C@](C)(O)[C@@H](O)[C@H](C)N(C)C[C@@H](C)CC2(C)O)O[C@@H](C)C[C@H]1N(C)C (stereo partly shown)	–	–	–	–	–	–	43.6 ± 8.5	126 ± 2.4	29.6 ± 3	50 ± 1.5	141 ± 4.3	63.6 ± 7.7	–	–	–	–
CCCCOC(=O)/C=C/C(=O)N(C)[C@@H]1C[C@H](C)O[C@H](O[C@H]2[C@H](C)[C@@H](O[C@H]3C[C@@](C)(OC)[C@@H](O)[C@H](C)O3)[C@H](C)C(=O)O[C@@H](CC)[C@](C)(O)[C@@H](O)[C@H](C)N(C)C[C@@H](C)CC2(C)O)[C@H]1O (stereo partly shown)	–	–	–	–	–	–	78.9 ± 2.6	97.2 ± 15.5	34.8 ± 2.8	39.3 ± 7.1	111 ± 4.6	64.9 ± 2.4	–	–	–	–
O=C(O)CCCCC(CCSCc1ccccc1)SCc1ccccc1 (stereo not shown) [CIP-613, reference compound]	–	–	–	–	–	–	–	–	–	–	–	–	224	236	206	232
COC(=O)/C=C/C(=O)OC [Dimethyl Fumarate, reference compound]	259	844	> 500	> 500	> 500	> 500	–	–	–	–	–	–	–	–	–	–
O=C(O)CCCCC1CCSS1 (stereo not shown) [Lipoic acid (ALA), Lipoic acid, reference compound]	> 500	> 500	> 500	> 500	> 500	> 500	–	–	–	–	–	–	–	–	–	–
